Laboratory results: patent US20180085386A1, “URIDINE MONOPHOSPHATE AND TRIPHOSPHATE DERIVATIVES, COMPOSITIONS AND METHODS OF USE” (Tufts University, priority 2016, published 2018)

System: circulating cytokines in plasma of PSAPP mice
Assay: Circulating cytokine levels in plasma of PSAPP mice (multiplex)
Type: in vivo, mouse
Conditions: vs vehicle
Method: As part of the study described in Example 16, the levels of numerous cytokines in plasma of mice treated with vehicle or compound 5 were also evaluated. As described in Example 16, treatment was initiated when the mice were approximately 3 months old. PSAPP mice were treated for 100 days with daily injections of 10 μg/kg of compound 5 or vehicle. Following treatment and the fear conditioning task experiment, plasma was taken for multiplex cytokine analysis of circulating cytokine levels in vehicle-treated versus compound-treated PSAPP mice. Cytokine levels are assayed using a multi-plex system where beads are labelled with capture antibody specific for each analyte tested. Each bead set is coupled to a specific capture antibody and is distinguishable from beads coupled to a different capture antibody. Thus, the levels of each analyte can be evaluated and distinguished. […] In FIGS. 10-13, compound 5 is indicated along the x-axis as “compound”.
In this study, treatment of PSAPP mice commenced when the mice were pre-symptomatic. Specifically, treatment was initiated when the mice were approximately 3 months old. PSAPP mice were treated for 100 days with daily, intraperitoneal injections of 10 μg/kg of compound 5 or vehicle. Following treatment, mice were assessed for the following: concentration of circulating pro-inflammatory cytokines; amyloid beta load (e.g., plaque burden); and memory in a fear conditioning task for memory formation. The data provided in Example 18 is for 18 vehicle treated mice and 20 compound treated mice. The data provided for the vehicle-treated group is the average across those mice, and error bars depict the standard error (SEM). Similarly, the data provided for the compound-treated group is the average across those mice, and the error bars depict the SEM. Mice were first evaluated in the fear conditioning task experiment. Subsequently, plasma was taken for multiplex cytokine analysis of circulating levels of cytokine in the plasma. Finally, plaque burden was assessed in the cortex and hippocampus of the mice.
In this study, treatment of PSAPP mice commenced after the mice were already symptomatic. Specifically, treatment was initiated when the mice were approximately 6 months old. PSAPP mice were treated for 7 days with daily, intraperitoneal injections of 10 μg/kg of compound 5 or vehicle. Following treatment, mice were assessed for the following: concentration of circulating pro-inflammatory cytokines; amyloid beta load (e.g., plaque burden); and plaque size. The data provided in Example 19 is for 7 vehicle treated mice and 7 compound treated mice. The data provided for the vehicle-treated group is the average across those mice, and error bars depict the standard error (SEM). Similarly, the data provided for the compound-treated group is the average across those mice, and the error bars depict the SEM. Plasma was taken for multiplex cytokine analysis of circulating levels of cytokine in the plasma. Subsequently, plaque burden was assessed in the cortex (using Aβ40) and hippocampus (using Aβ42) of the mice, and plaque size was also assessed.

[1] = 10 μg/kg daily for 100 days, Example 18
[2] = 10 μg/kg daily for 100 days, Example 18, FIG. 10
[3] = 10 μg/kg i.p. daily for 7 days from ~6 months (symptomatic), Example 20, FIG. 16
[4] = 10 μg/kg i.p. daily for 100 days from ~3 months, Example 19, FIG. 14

O=c1ccn([C@@H]2O[C@H](CO)C(O)C2O)c(=O)n1Cc1noc2ccccc12 (stereo in doubt) [compound 5]
average plasma level of IFN-r [1]: reduced
average plasma level of IL-1β [1]: reduced
average plasma level of IL-2 [1]: reduced
average plasma level of IL-3 [1]: reduced
average plasma level of IL-5 [1]: reduced
average plasma level of IL-6 [1]: reduced
average plasma level of IL-7 [1]: reduced
average plasma level of IL-9 [1]: reduced
average plasma level of IL-13 [1]: reduced
average plasma level of IL-17 [1]: reduced
average plasma level of LIF [1]: reduced
average plasma level of MIP-1α [1]: reduced
average plasma level of MIP-1β [1]: reduced
plasma level of Eotaxin [1]: no or substantially no change
plasma level of G-CSF [1]: no or substantially no change
plasma level of GM-CSF [1]: no or substantially no change
plasma level of IL-1α [1]: no or substantially no change
plasma level of IP-10 [1]: no or substantially no change
plasma level of LIX [1]: no or substantially no change
plasma level of M-CSF [1]: no or substantially no change
plasma level of MCP-1 [1]: no or substantially no change
plasma level of MIP-2 [1]: no or substantially no change
plasma level of IL-4 [2]: statistically significant reduction
plasma level of IL-10 [2]: statistically significant reduction
plasma level of IL-12 (IL-12(p70)) [2]: statistically significant reduction
plasma level of IL-12(p40) (p40 subunit alone) [2]: does not reflect a change
plasma level of IL-10 [3]: statistically significant reduction
plasma level of IL-12 (IL-12(p70)) [3]: statistically significant reduction
plasma level of IL-13 [3]: statistically significant reduction
plasma level of IL-17 [3]: statistically significant reduction
plasma level of MIP-1a [3]: statistically significant reduction
plasma level of MIP-1b [3]: statistically significant reduction
plasma level of TNFα [3]: statistically significant reduction
plasma level of IL-2 [4]: statistically significant reduction
plasma level of IL-4 [4]: statistically significant reduction
plasma level of IL-10 [4]: statistically significant reduction
plasma level of IL-12 (IL-12(p70)) [4]: statistically significant reduction
plasma level of IL-13 [4]: statistically significant reduction
plasma level of IL-17 [4]: statistically significant reduction
plasma level of MIP-1a [4]: statistically significant reduction
plasma level of MIP-1b [4]: statistically significant reduction
